The results in this text go back to US10919943B2, “Mutant proteins enabling agrochemical control of plant gene expression” (The Regents of the University of California, priority 2016, dated 2021).

Test [1] relates to 35S::PYR1^MANDI transgenic strain. Kind of test: Thermography of leaf temperature after chemical treatment. The format is in vivo, Arabidopsis thaliana. The settings on record: 1 μM then 10 μM mandipropamid, 24 hours after treatment; FIG. 10. The source says: To examine the effects of over-expressing either PYR1*^-MANDI or HAB1* in Arabidopsis thaliana, we made 35S-driven GFP-PYR1*^-MANDI and GFP-HAB1* constructs by cloning the mutant genes into the binary vector pEGAD, and the resultant plasmids were transformed into Agrobacterium tumefaciens. The floral dip method was used to generate T0 transgenic seed for both constructs and the T0 seed was germinated in soil containing glufosinate to select for transgenic T1 plants. The PYR1*^-MANDI T1 plants isolated were grown for ˜5 weeks and then treated with mandipropamid, using comparisons to wild type Columbia plants and a previously constructed 35S::PYR1^MANDI transgenic strain as controls. The treated plants were thermographed 24 hours after chemical applications to examine leaf temperature, which increases after ABA responses are activated, due to reduced transpiration. To examine different mandipropamid concentrations, the plants were first treated with 1 μM mandipropamid and then 3 days later were treated again with 10 μM mandipropamid.

In test [2] the target is T1, PYR1*^-MANDI (Arabidopsis thaliana, UniProt O49686, A160V/F108A/F159V/K59R/M158I/S122G/T162D/V81I/Y58H).
T1 construct: expressed in transfected cells; host or cells: S. cerevisiae strain MAV99 (selection)
T1 sequence (O49686 1-191 Y58H/K59R/V81I/F108A/S122G/M158I/F159V/A160V/T162D): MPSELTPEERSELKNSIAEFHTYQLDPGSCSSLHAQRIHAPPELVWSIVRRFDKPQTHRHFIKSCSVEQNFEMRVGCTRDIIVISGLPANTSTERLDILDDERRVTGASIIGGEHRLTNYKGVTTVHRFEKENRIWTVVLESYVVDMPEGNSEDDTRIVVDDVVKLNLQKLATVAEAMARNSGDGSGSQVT
T1 sequence (Q9CAJ0 4-511 R199A/D204A/S322D/V393R/R505A partner): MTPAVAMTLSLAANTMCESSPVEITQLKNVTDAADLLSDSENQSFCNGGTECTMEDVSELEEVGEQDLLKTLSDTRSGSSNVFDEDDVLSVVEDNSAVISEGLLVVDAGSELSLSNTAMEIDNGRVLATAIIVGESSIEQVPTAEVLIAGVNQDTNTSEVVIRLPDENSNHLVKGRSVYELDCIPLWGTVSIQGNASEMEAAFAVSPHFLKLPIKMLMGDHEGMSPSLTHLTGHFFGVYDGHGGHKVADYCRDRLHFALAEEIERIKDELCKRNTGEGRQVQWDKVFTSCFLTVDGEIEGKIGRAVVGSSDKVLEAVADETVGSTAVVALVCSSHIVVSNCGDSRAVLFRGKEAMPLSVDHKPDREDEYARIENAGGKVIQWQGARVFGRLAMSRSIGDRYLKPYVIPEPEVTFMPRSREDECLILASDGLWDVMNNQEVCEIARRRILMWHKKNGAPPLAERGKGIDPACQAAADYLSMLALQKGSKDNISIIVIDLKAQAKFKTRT
Kind of test: Yeast two hybrid, mandipropamid-induced interaction of HAB1 variants with pBD-PYR1*^-MANDI. The format is cell-based. The settings on record: FIG. 6. An excerpt:
To investigate the effects of overexpressing HAB1^!-2 in Arabidopsis, we used Agrobacterium mediated transformation to generate 35S::GFP-HAB1^!-2 transgenic plants. HAB1^!-2 was cloned from pACT-HAB1^!-2 into pEGAD, a binary vector suitable for plant transformation, generating a 35S-driven GFP-HAB1^!-2 fusion protein. The clone was transformed into Agrobacterium and the floral dip method used to transform Arabidopsis. After selection of T0 seed on soil containing glufosinate, several T1 seedlings were identified. […] As an alternate strategy, we eliminated HAB1's catalytic activity by introducing a mutation in a conserved metal-ion binding residue (D204), which is homologous to D131A mutation in ABI1, previously shown to eliminate phosphatase activity without disrupting wild type receptor-ABI1 interactions (Liang et al., 2011). We used QuickChange mutagenesis to introduce the D204A mutation into pACT-HAB1^!-2, generating pACT-HAB1^!-3. When tested for mandipropamid induced interactions with pBD-PYR1*^-MANDI, HAB1^!-3 is ˜10-fold less sensitive to mandipropamid relative to HAB1^!-2 (FIG. 5).
D204 is located within HAB1's catalytic active site and binds to one of 3 catalytic Mg^++ ions that participate in catalysis. […] It is likely that disruptions to active site structure introduced by D204A destabilize the PYR1*^-MANDI/HAB1^!-3 interaction relative to HAB1^!-2. We reasoned that suppressor mutations in other HAB1 interface or active site residues could restore sensitivity by strengthening interactions with PYR1*^-MANDI. To identify such suppressors, we mutagenized the pACT-HAB1^!-3 template using NNK mutagenesis in 28 residues located with at the PYR1 binding interface. The residues targeted were: R199, S200, E201, E203, D243, G244, H245, G246, G247, S322, E323, T324, D346, K365, K381, 1383, Q384, W385, Q386, R389, F391, G392, Y404, S431, G433, D436, D492 and N394. The pACT-HAB1^!-3 template was mutagenized in 28 separate NNK mutagenesis reactions using the QuickChange protocol. Mini-libraries, each containing ˜1000 clones, were made for each NNK reaction and plasmid DNA for the 28 mutations prepared, pooled, and then transformed into S. cerevisiae strain MAV99 co-transformed with pBD-PYR1*^-MANDI, and then plated onto selective SD(-Leu,-Trp,-Ura) agar media supplemented with 500 nM mandipropamid. […] S322D and R199A were combined using the Lightning Multi-site Mutagenesis™ (Agilent, USA) method, and the resultant pentuple mutant tested in combination with pBD-PYR1*^-MANDI for sensitivity to mandipropamid using β-galactosidase assays.

Consider `C#CCOc1ccc(CCNC(=O)C(OCC#C)c2ccc(Cl)cc2)cc1OC` (centres unmarked) [mandipropamid], for which, in test [1], the leaf temperature entry was “strong increase in leaf temperature”.

B1: HAB1*: catalytically inactive orthogonal pentuple HAB1 mutant (protein, listed as Arabidopsis thaliana)
chain: T1 sequence (Q9CAJ0 4-511 R199A/D204A/S322D/V393R/R505A partner)
Regarding B1, the “mandipropamid sensitivity for binding to pBD-PYR1*^-MANDI” value in test [2] was “nM sensitivity”.
